In ChEMBL document CHEMBL3046844, “Synthesis of novel 4-thiazolidione derivatives as antibacterial agents against drug-resistant Staphylococcus epidermidis” (2013):
≈ marks a conversion by molar mass, not a printed value.

How the values were obtained:
Assay type in all cases: functional
[1] = tested on: Escherichia coli; experiment: Antibacterial activity against Escherichia coli ATCC 25922 assessed as growth inhibition after 12 hr by CLSI broth microdilution method; conditions: ATCC 25922, 12 h
[2] = tested on: Salmonella; experiment: Antibacterial activity against Salmonella assessed as growth inhibition after 12 hr by CLSI broth microdilution method
[3] = tested on: Staphylococcus epidermidis; experiment: Antibacterial activity against Staphylococcus epidermidis RP62A assessed as growth inhibition after 12 hr by CLSI broth microdilution method
[4] = tested on: Staphylococcus aureus; experiment: Antibacterial activity against methicillin-resistant Staphylococcus aureus 8166 clinical isolate assessed as growth inhibition after 12 hr by CLSI broth microdilution method; conditions: Staphylococcus aureus, 8166, 12 h
[5] = tested on: Staphylococcus epidermidis; experiment: Antibacterial activity against methicillin-resistant Staphylococcus epidermidis 8311 clinical isolate assessed as growth inhibition after 12 hr by CLSI broth microdilution method; conditions: Staphylococcus epidermidis, 8311, 12 h
[6] = tested on: Staphylococcus aureus; experiment: Antibacterial activity against methicillin-resistant Staphylococcus aureus 8282 clinical isolate assessed as growth inhibition after 12 hr by CLSI broth microdilution method; conditions: Staphylococcus aureus, 8282, 12 h
[7] = tested on: Staphylococcus epidermidis; experiment: Antibacterial activity against methicillin-resistant Staphylococcus epidermidis 8354 clinical isolate assessed as growth inhibition after 12 hr by CLSI broth microdilution method; conditions: Staphylococcus epidermidis, 8354, 12 h

Row | MIC [1] | MIC [2] | MIC [3] | Compound | MIC [4] | MIC [5] | MIC [6] | MIC [7]
1 | > 200 µM | > 200 µM | 12.5 µM (≈ 6.98 µg/mL) | O=C(O)c1ccc(/C=C2/S/C(=N\c3ccc(Br)cc3)N(c3ccc(Br)cc3)C2=O)cc1 | – | – | – | –
2 | > 200 µM | > 200 µM | 100 µM (≈ 43 µg/mL) | O=C(O)COc1ccc(/C=C2/S/C(=N\c3ccccc3)N(c3ccccc3)C2=O)cc1 | – | – | – | –
3 | > 200 µM | > 200 µM | 6.25 µM (≈ 3.31 µg/mL) | COc1cc(/C=C2/S/C(=N\c3ccc(Cl)cc3)N(c3ccc(Cl)cc3)C2=O)ccc1OCC(=O)O | – | – | – | –
4 | > 200 µM | > 200 µM | 25 µM (≈ 10.9 µg/mL) | O=C(O)c1ccc(/C=C2/S/C(=N\c3ccc(F)cc3)N(c3ccc(F)cc3)C2=O)cc1 | – | – | – | –
5 | > 200 µM | > 200 µM | 50 µM (≈ 25.8 µg/mL) | CCc1ccccc1/N=C1\S/C(=C/c2ccc(OCC(=O)O)c(OC)c2)C(=O)N1c1ccccc1CC | – | – | – | –
6 | > 200 µM | > 200 µM | > 200 µM | O=C(O)c1ccc(COc2ccc(/C=C3/S/C(=N\c4ccc(Cl)cc4)N(c4ccc(Cl)cc4)C3=O)cc2)cc1 | – | – | – | –
7 | > 200 µM | > 200 µM | 50 µM (≈ 20 µg/mL) | O=C(O)c1ccc(/C=C2/S/C(=N\c3ccccc3)N(c3ccccc3)C2=O)cc1 | – | – | – | –
8 | > 200 µM | > 200 µM | 11.5 µM (≈ 4.02 µg/mL) | CC1(C)S[C@@H]2[C@H](NC(=O)[C@H](N)c3ccccc3)C(=O)N2[C@H]1C(=O)O [AMPICILLIN] | – | – | – | –
9 | > 200 µM | > 200 µM | 25 µM (≈ 12.5 µg/mL) | O=C(O)COc1cccc(/C=C2/S/C(=N\c3ccc(Cl)cc3)N(c3ccc(Cl)cc3)C2=O)c1 | – | – | – | –
10 | > 200 µM | > 200 µM | 25 µM (≈ 11.7 µg/mL) | O=C(O)COc1ccc(/C=C2/S/C(=N\c3ccc(F)cc3)N(c3ccc(F)cc3)C2=O)cc1 | – | – | – | –
11 | – | – | – | C[C@H]1COc2c(N3CCN(C)CC3)c(F)cc3c(=O)c(C(=O)O)cn1c23 [LEVOFLOXACIN] | 22.1 µM (≈ 7.99 µg/mL) | 22.1 µM (≈ 7.99 µg/mL) | 22.1 µM (≈ 7.99 µg/mL) | 22.1 µM (≈ 7.99 µg/mL)

Row | Compound | MIC [1] | MIC [2] | MIC [3] | MIC [4] | MIC [5] | MIC [6] | MIC [7]
12 | O=C(O)COc1ccc(/C=C2/S/C(=N\c3ccc(Br)cc3)N(c3ccc(Br)cc3)C2=O)cc1 | > 200 µM | > 200 µM | 3.13 µM (≈ 1.84 µg/mL) | 6.25 µM (≈ 3.68 µg/mL) | 3.13 µM (≈ 1.84 µg/mL) | 3.13 µM (≈ 1.84 µg/mL) | 3.13 µM (≈ 1.84 µg/mL)
13 | COc1cccc(OC)c1C(=O)N[C@@H]1C(=O)N2[C@@H]1SC(C)(C)[C@@H]2C(=O)O [METHICILLIN] | > 200 µM | > 200 µM | 5.26 µM (≈ 2 µg/mL) | 65.7 µM (≈ 25 µg/mL) | 65.7 µM (≈ 25 µg/mL) | 65.7 µM (≈ 25 µg/mL) | 65.7 µM (≈ 25 µg/mL)
14 | O=C(O)c1ccc(/C=C2/S/C(=N\c3ccc(Cl)cc3)N(c3ccc(Cl)cc3)C2=O)cc1 | > 200 µM | > 200 µM | 3.13 µM (≈ 1.47 µg/mL) | 12.5 µM (≈ 5.87 µg/mL) | 3.13 µM (≈ 1.47 µg/mL) | 3.13 µM (≈ 1.47 µg/mL) | 3.13 µM (≈ 1.47 µg/mL)
15 | O=C(O)COc1ccc(/C=C2/S/C(=N\c3ccc(Cl)cc3)N(c3ccc(Cl)cc3)C2=O)cc1 | > 200 µM | > 200 µM | 1.57 µM (≈ 0.784 µg/mL) | 6.25 µM (≈ 3.12 µg/mL) | 1.57 µM (≈ 0.784 µg/mL) | 3.13 µM (≈ 1.56 µg/mL) | 1.57 µM (≈ 0.784 µg/mL)
16 | O=C(O)COc1ccc(/C=C2/S/C(=N\c3ccccc3Cl)N(c3ccccc3Cl)C2=O)cc1 | > 200 µM | > 200 µM | 3.13 µM (≈ 1.56 µg/mL) | 12.5 µM (≈ 6.24 µg/mL) | 3.13 µM (≈ 1.56 µg/mL) | 3.13 µM (≈ 1.56 µg/mL) | 3.13 µM (≈ 1.56 µg/mL)
17 | O=C(O)COc1ccc(/C=C2/S/C(=N\c3cccc(Cl)c3)N(c3cccc(Cl)c3)C2=O)cc1 | > 200 µM | > 200 µM | 3.13 µM (≈ 1.56 µg/mL) | 12.5 µM (≈ 6.24 µg/mL) | 3.13 µM (≈ 1.56 µg/mL) | 3.13 µM (≈ 1.56 µg/mL) | 3.13 µM (≈ 1.56 µg/mL)
